Paper PMC11578313, “Miniaturized Modular Click Chemistry‐enabled Rapid Discovery of Unique SARS‐CoV‐2 M^pro Inhibitors With Robust Potency and Drug‐like Profile” (Advanced Science, 2024)
Several values for one entry are separate records, joined by “and”; a condition that tells them apart may be missing. Identical values can stand only once.

Experiment: In vivo pharmacokinetic study in male ICR mice (compound alone)
Conditions: for Plasma concentration (Calculated Concentration): mouse plasma
Method: The pharmacokinetics profile of the newly developed antiviral compound C5N17B was subsequently evaluated in male ICR mice that were free from specific pathogens, aiming to assess its potential for therapeutic application in vivo.
A total of six male ICR mice were randomly assigned to two groups. One group received the test drug intravenously at a dosage of 2 mg kg^−1, while the other group received oral administration at a dosage of 10 mg kg^−1. To prepare solutions of C5N17B, 2.39 mg compound was dissolved in a mixture of 0.119 mL DMSO, 0.238 mL polyoxyl 15 hydroxystearate (Solutol), and 2.027 mL normal saline. For the intravenous group, blood samples were collected from the sinus jugular into heparinized centrifugation tubes at various time points after dosing: 5, 15, 30 min, 1, 2, 4, 6, 8, and 24 h. As for the oral administration group, blood samples were collected at similar time points (0.05 mL of blood each time). The collected blood samples were then centrifuged at a speed of 4000 rpm for 10 min to separate plasma, which was subsequently stored at −20 °C until further LC‐MS analysis to determine the concentration of C5N17B. Briefly, the analysis involved adding 20 µL of plasma, sample calibration standard, quality control, and dilution quality control, and blank samples into respective wells on a 96‐well plate. Then each sample was quenched with 200 µL of internal standard (the blank sample was quenched with 200 µL of ACN: MeOH = 1:1), followed by vortex‐mixed for 5 min, and centrifuged for 0.5 min at 4000 rpm, 4 °C. Next, a 100 µL portion of supernatant was transferred to another clean 96‐well plate and diluted with 100 µL of water, vortex‐mixed for 5 min and centrifuged for 10 min at 4000 rpm, 4 °C, then the sample was injected for LC‐MS/MS analysis. All samples were quantified using an LC‐MS/MS‐AR Triple Quad 5500+ (SCIEX, USA) and the ExionLC liquid phase system. The mobile phase was 0.1% formic acid‐water/ACN with gradient elute at a flow rate of 0.8 mL mi^−1n (total time 2.20 min), and the detection wavelength was 225 nm. All blood samples were centrifuged using an Eppendorf 5424R centrifuge and quantified using an LC‐MS/MS‐AR Triple Quad 5500+ (SCIEX, USA). The pharmacokinetic parameters were calculated by WinNolin 8.2 software.

[1] = IV 2 mg/kg, individual mice 1#-3#, 2 mg/kg
[2] = IV 2 mg/kg, individual mice 1-3, 2 mg/kg
[3] = PO 10 mg/kg, individual mice 4#-6#, 10 mg/kg
[4] = PO 10 mg/kg, individual mice 4-6, 10 mg/kg

For Cc1cncc(C(=O)N2C[C@H]3CC[C@@H](C2)N3[C@H](c2cccc(F)c2)c2cn(CCc3ccsc3)nn2)c1 [Compound C5N17B], the “Plasma concentration (Calculated Concentration)” value (IV 2 mg/kg, 5 min (5 min), individual mice 1#-3#, 2 mg/kg) was 185 ng/mL and 233 ng/mL, the “Plasma concentration (Calculated Concentration)” value (IV 2 mg/kg, 0.5 h (30 min), individual mice 1#-3#, 2 mg/kg) was 10.2 ng/mL and 16.1 ng/mL and the plasma concentration (IV 2 mg/kg, 1 h, individual mice) was “BQL”. For the same molecule, the “Plasma concentration (Calculated Concentration)” value (IV 2 mg/kg, 1 h, individual mice 1#-3#, 2 mg/kg) was “BQL (3×) and No Peak”, the plasma concentration (IV 2 mg/kg, 2 h, individual mice) was “BQL” and the “Plasma concentration (Calculated Concentration)” value (IV 2 mg/kg, 2 h, individual mice 1#-3#, 2 mg/kg) was “BQL (3×) and No Peak”. For the same molecule, the plasma concentration (IV 2 mg/kg, 4 h, individual mice) was “BQL”, the “Plasma concentration (Calculated Concentration)” value (IV 2 mg/kg, 4 h, individual mice 1#-3#, 2 mg/kg) was “BQL (3×) and No Peak” and the plasma concentration (IV 2 mg/kg, 6 h, individual mice) was “BQL”. For the same molecule, the “Plasma concentration (Calculated Concentration)” value (IV 2 mg/kg, 6 h, individual mice 1#-3#, 2 mg/kg) was “BQL (3×) and No Peak”, the plasma concentration (IV 2 mg/kg, 8 h, individual mice) was “BQL” and the “Plasma concentration (Calculated Concentration)” value (IV 2 mg/kg, 8 h, individual mice 1#-3#, 2 mg/kg) was “BQL (3×) and No Peak”. The plasma concentration (IV 2 mg/kg, 24 h, individual mice) was “BQL”, the “Plasma concentration (Calculated Concentration)” value (IV 2 mg/kg, 24 h, individual mice 1#-3#, 2 mg/kg) was “BQL (3×) and No Peak” and the “AUC0-∞” value [1] was 51.4 ng·h/mL and 65.2 ng·h/mL. The AUC(0-t) [1] was 49.9 ng·h/mL and 62.6 ng·h/mL, the C0 [1] was 342 ng/mL and 528 ng/mL and the Cl [1] was 648.77 mL/min/kg and 511.58 mL/min/kg. The Cmax [1] was 185 ng/mL and 233 ng/mL, the MRT0-t [1] was 6.48 min and 5.56 min and the “MRT0-∞” value [1] was 7.38 min and 6.9 min. For the same molecule, the T1/2 [1] was 6 min and 6.66 min, the Vz [1] was 5.616 L/kg and 4.924 L/kg and the Tlast (IV 2 mg/kg, individual mice 1-3) was 0.5 h. For the same molecule, the AUCINF_obs [2] was 51.379 ng·h/mL and 65.1568 ng·h/mL, the AUCINF_pred [2] was 51.3513 ng·h/mL and 64.7977 ng·h/mL and the AUC_%Back_Ext_obs [2] was 49.436% and 42.7448% and 48.6559%. The AUC_%Back_Ext_pred [2] was 49.6744% and 42.7678% and 48.9255%, the AUC_%Extrap_obs [2] was 3.513% and 2.864% and 3.964% and the AUC_%Extrap_pred [2] was 3.048% and 2.812% and 3.432%. The AUCall [2] was 49.9075 ng·h/mL and 62.5739 ng·h/mL, the AUClast [2] was 49.9075 ng·h/mL and 62.5739 ng·h/mL and the AUMCINF_obs [2] was 8.9367 h*h*ng/mL and 6.325 h*h*ng/mL and 7.498 h*h*ng/mL. For the same molecule, the AUMCINF_pred [2] was 8.682 h*h*ng/mL and 6.307 h*h*ng/mL and 7.2606 h*h*ng/mL, the AUMC_%Extrap_obs [2] was 20.8781% and 14.9894% and 22.7511% and the AUMC_%Extrap_pred [2] was 18.5552% and 14.7494% and 20.228%. The AUMClast [2] was 7.071 h*h*ng/mL and 5.377 h*h*ng/mL and 5.792 h*h*ng/mL, the C0 [2] was 342.295 ng/mL and 528.167 ng/mL and the Cl_obs [2] was 648.773 mL/min/kg and 511.587 mL/min/kg. The Cl_pred [2] was 412.98 mL/min/kg and 649.123 mL/min/kg and 514.422 mL/min/kg, the Clast [2] was 10.2 ng/mL and 16.1 ng/mL and the Clast_pred [2] was 15.8864 ng/mL and 10.0084 ng/mL and 13.8618 ng/mL. For the same molecule, the Cmax [2] was 185 ng/mL and 233 ng/mL, the Cmax_D [2] was 146 kg·ng/mL/mg and 92.5 kg·ng/mL/mg and 116.5 kg·ng/mL/mg and the HL_Lambda_z [2] was 0.1073 h and 0.09999 h and 0.1112 h. The Lambda_z [2] was 6.932 h⁻¹ and 6.233 h⁻¹, the MRTINF_obs [2] was 7.386 min and 6.906 min and the MRTINF_pred [2] was 7.368 min and 6.72 min. For the same molecule, the MRTlast [2] was 6.462 min and 5.554 min, the Vss_obs [2] was 2.71724 L/kg and 4.7917 L/kg and 3.53216 L/kg and the Vss_pred [2] was 2.66526 L/kg and 4.78335 L/kg and 3.45846 L/kg. For the same molecule, the Vz_obs [2] was 3.81856 L/kg and 5.61561 L/kg and 4.92437 L/kg, the Vz_pred [2] was 3.83697 L/kg and 5.61863 L/kg and 4.95166 L/kg and the “C0, Mean” value (IV 2 mg/kg, mean of mice 1#-3#) was 514 ng/mL. For the same molecule, the “Plasma concentration (Calculated Concentration)” value (PO 10 mg/kg (10MPK), 5 min (5 min), individual mice 4#-6#) was 23.7 ng/mL and 30.0 ng/mL and 68.2 ng/mL and 30 ng/mL, the “Plasma concentration (Calculated Concentration)” value (PO 10 mg/kg (10MPK), 15 min, individual mice 4-6) was 15.3 ng/mL and 19.3 ng/mL and the “Plasma concentration (Calculated Concentration)” value (PO 10 mg/kg (10MPK), 30 min, individual mice 4-6) was 8.4 ng/mL and 4.44 ng/mL and 12 ng/mL. For the same molecule, the “Plasma concentration (Calculated Concentration)” value (PO 10 mg/kg (10MPK), 1 hr, individual mice 4-6) was 6.32 ng/mL and 10.4 ng/mL and 4.89 ng/mL, the “Plasma concentration (Calculated Concentration), re-analysis” value (PO 10 mg/kg (10MPK), 1 hr, samples marked "re", individual mice) was 5.19 ng/mL and the “Plasma concentration (Calculated Concentration)” value (PO 10 mg/kg (10MPK), 2 hr, individual mice 4-6) was 6.1 ng/mL and 8.71 ng/mL and 16.7 ng/mL. The “Plasma concentration (Calculated Concentration)” value (PO 10 mg/kg (10MPK), 4 hr, individual mice 4-6) was 4.35 ng/mL and 7.74 ng/mL, the “Plasma concentration (Calculated Concentration)” value (PO 10 mg/kg (10MPK), 6 hr, individual mice 4-6) was “No Peak” and the “Plasma concentration (Calculated Concentration)” value (PO 10 mg/kg (10MPK), 8 hr, individual mice 4-6) was “No Peak”. For the same molecule, the “Plasma concentration (Calculated Concentration)” value (PO 10 mg/kg (10MPK), 24 hr, individual mice 4-6) was “No Peak”, the T1/2 (PO 10 mg/kg (10MPK), individual mice 4#-6#) was 208 min and 142 min and 290 min and the plasma concentration (PO 10 mg/kg, 0.5 h, individual mice 4#-6#, 10 mg/kg) was 8.4 ng/mL and 12 ng/mL. The plasma concentration (PO 10 mg/kg, 2 h, individual mice 4#-6#, 10 mg/kg) was 6.1 ng/mL, the plasma concentration (PO 10 mg/kg, 6 h, individual mice 4#-6#, 10 mg/kg) was “BQL” and the plasma concentration (PO 10 mg/kg, 8 h, individual mice 4#-6#) was “BQL”. The plasma concentration (PO 10 mg/kg, 24 h, individual mice 4#-6#) was “BQL”, the “AUC0-∞” value [3] was 54.0 ng·h/mL and 102 ng·h/mL and the AUC(0-t) [3] was 45.5 ng·h/mL and 47.9 ng·h/mL. The Cmax [3] was 30.0 ng/mL and 68.2 ng/mL and 23.7 ng/mL, the F [3] was 14.30% and 15.08% and the MRT0-t [3] was 114 min and 110 min. The “MRT0-∞” value [3] was 314 min and 185 min and 401 min, the Tlag (PO 10 mg/kg, individual mice 4-6) was 0 h and the Cmax (PO 10 mg/kg, individual mice 4-6, full-precision output, 10 mg/kg) was 30 ng/mL and 68.2 ng/mL and 23.7 ng/mL. The AUCINF_obs [4] was 54.0464 ng·h/mL and 102.004 ng·h/mL, the AUCINF_pred [4] was 53.9915 ng·h/mL and 94.7713 ng·h/mL and the AUC_%Extrap_obs [4] was 48.9815% and 15.8821% and 53.0006%. For the same molecule, the AUC_%Extrap_pred [4] was 44.7444% and 15.7964% and 49.4138%, the AUCall [4] was 45.4628 ng·h/mL and 47.9412 ng·h/mL and the AUClast [4] was 45.4628 ng·h/mL and 47.9412 ng·h/mL. The AUMCINF_obs [4] was 311.492 h*h*ng/mL and 166.93 h*h*ng/mL and 682.098 h*h*ng/mL, the AUMCINF_pred [4] was 270.44 h*h*ng/mL and 166.412 h*h*ng/mL and 602.65 h*h*ng/mL and the AUMC_%Extrap_obs [4] was 84.1842% and 48.3677% and 87.065%. The AUMC_%Extrap_pred [4] was 81.7834% and 48.2072% and 85.3597%, the AUMClast [4] was 49.2649 h*h*ng/mL and 86.1896 h*h*ng/mL and 88.2296 h*h*ng/mL and the Cl_F_obs [4] was 3083.77 mL/min/kg and 1633.93 mL/min/kg. For the same molecule, the Cl_F_pred [4] was 3030.33 mL/min/kg and 3086.92 mL/min/kg and 1758.62 mL/min/kg, the Clast [4] was 5.85 ng/mL and 2.52 ng/mL and 7.74 ng/mL and the Clast_pred [4] was 4.934 ng/mL and 2.504 ng/mL and 6.705 ng/mL. For the same molecule, the Cmax_D [4] was 3 kg·ng/mL/mg and 6.82 kg·ng/mL/mg and 2.37 kg·ng/mL/mg, the HL_Lambda_z [4] was 3.457 h and 2.361 h and 4.842 h and the Lambda_z [4] was 0.2005 h⁻¹ and 0.2936 h⁻¹ and 0.1432 h⁻¹. The MRTINF_obs [4] was 313.7 min and 185.3 min and 401.2 min.
